# Assays:
# Type in all cases: cell-based, rat
# cardiac stem cells [1] = assay: RNA expression analysis (real-time RT-PCR) of EMT and pluripotency markers after 7 days with TGF-β inhibitors
# Experimental: Total RNA was extracted from the cardiac stem cells using PureLink RNA Mini Kit (Life Technologies) according to the manufacturer's protocol. RNA was then quantified with a Quanti-iT RiboGreen RNA Assay Kit and assessed using a BioTek Synergy HT Microplate Reader (excitation/emission 480/520 nm). Total RNA (200 ng) was reverse-transcribed with a QuantiTect Reverse Transcription kit (Qiagen). Real-time RT-PCR was conducted using Rower SYBR Green Master Mix (Applied Biosystems) on a StepOnePlus Real-time PCR System (Applied Biosystems). Specific primers were synthesized by Life Technologies. CYPA was used as a reference gene. Data analysis was performed on StepOne software version 2.1 (Applied Biosystems) using the comparative Ct (AACt) quantitation method.
# To determine the effect of inhibition of TGF-β signaling in cardiac stem cells on markers of epithelial/endothelial to mesenchymal transition (i.e., EMT markers) and pluripotency markers the following experiments were performed. Cardiac stem cells were isolated from sham and CHF heart tissue as described in Example 1 above. Cardiac stem cells from CHF and sham animals were treated in culture with TGF-β inhibitors SB431542 or SIS3 for 7 days and subsequently assessed for EMT and pluripotency expression by RNA expression analysis and western blotting using the techniques described above in Example 1.
# [2] = tested on: explant-derived cardiac stem cells; assay: Flow cytometry of explant outgrowths cultured 21 days with TGF-β inhibitors
# Experimental: Isolated cardiac stem cells were further characterized using flow cytometry as follows. Cells were fixed in 70% ethanol and labeled with the following antibodies: c-Kit (Santa-Cruz Biotechnology), vimentin and smooth muscle actin (Abcam), and CD90 (BD Biosciences). Cells were treated with secondary antibodies corresponding to either anti-rabbit or anti-mouse IgG conjugated with Alexa 488, phycoerythrin (PE), or PE-Cy5.5 (Life Technologies). Direct labeling with FITC-conjugated CD34 and PE-Cy5.5 conjugated CD45 (BD Biosciences) antibodies was used to exclude bone marrow and hematopoietic cells. Freshly isolated bone marrow cells were used as positive controls for CD34 and CD45 labeling. For a negative control, cells were labeled with isotype IgG instead of primary antibody. Cell events were detected using a FACS Calibur flow cytometer equipped with an argon laser (BD Biosciences). Data were analyzed using CellQuest software (BD Biosciences).
# The effects of TGF-β inhibition on the yield of explant-derived cardiac stem cells were examined as follows. Cardiac stem cells were isolated from heart tissue of CHF and sham animals as described in Example 1 above. Cells were subsequently cultured in cardiac differentiation medium (EMD Millipore) supplemented with 2 μmol/L Mocetinostat (SelleckChem) in the presence or absence of TGF-β inhibitors SB431542 and SIS3 for 21 days. Explant outgrowths were analyzed by flow cytometry as described above in Example 1.
# cardiac stem cells [3] = assay: Differentiation potential: cardiac troponin T (TnT) immunocytochemistry; settings: 7 days in cardiac differentiation medium with 2 μmol/L Mocetinostat
# Experimental: The effects of TGF-β inhibition on the differentiation potential of cardiac stem cells was examined as follows. Cardiac stem cells were isolated from heart tissue of CHF and sham animals as described in Example 1 above. Cells were subsequently cultured in cardiac differentiation medium (EMD Millipore) supplemented with 2 μmol/L Mocetinostat (SelleckChem) in the presence or absence of TGF-β inhibitors SB431542 and SIS3 for 7 days. Expression of cardiac troponin T (TnT) was evaluated by immunocytochemistry. TnT is an accepted marker for cardiac differentiation. Cells were fixed/permeabilized with a 1:1 acetone:ethanol mixture, blocked with 3% BSA in PBS, and labeled with mouse anti-TnT primary antibody (Abcam). Specific staining was visualized using anti-mouse secondary antibodies conjugated with Alexa 568 (Molecular Probes). Nuclei were stained with 4′,6-diamidino-2-phenylindole (Invitrogen). TnT-positive cells were quantified in 5 random microscopic fields. The percentage of TnT-positive cells was calculated as the number of positively stained cells normalized to the total number of cells.
# cardiac explants = assay: Morphology of explant cultures after 21 days with TGF-β inhibitors; settings: 21 days in culture
Structure (SMILES),upregulated E-cadherin expression (cardiac stem cells [1]; CHF cardiac stem cells),upregulated Nanog expression (cardiac stem cells [1]; CHF cardiac stem cells),increased Sox2 expression (cardiac stem cells [1]; sham cardiac stem cells),reduced SMA gene expression (cardiac stem cells [1]; sham cardiac stem cells),upregulated E-cadherin expression (cardiac stem cells [1]; sham cardiac stem cells),upregulated Nanog expression (cardiac stem cells [1]; sham cardiac stem cells),decreased percentage of vimentin-positive fibroblasts ([2]; CHF CSCs),increase in the number of c-Kit+ cells ([2]; CHF CSCs),reduction of the number of CD90-positive cells ([2]; CHF CSCs),reduction of the number of SMA-positive myofibroblasts ([2]; CHF CSCs),decreased percentage of vimentin-positive fibroblasts ([2]; sham CSCs),increase in the number of c-Kit+ cells ([2]; sham CSCs),reduction of the number of CD90-positive cells ([2]; sham CSCs),TnT+ cells (cardiac stem cells [3]; CHF cardiac stem cells),TnT+ cells (cardiac stem cells [3]; sham cardiac stem cells),"number of small, round phase-bright cell clusters compared with controls (cardiac explants)",increased Sox2 expression (cardiac stem cells [1]; CHF cardiac stem cells)
COc1cc2c(cc1OC)CN(C(=O)/C=C/c1c(-c3ccccc3)n(C)c3ncccc13)CC2 [SIS3],no effect,no effect,4 fold,5 fold,5 fold,2.2 fold,34%,no effect,53%,62.8%,35%,52%,52.4%,19.6%,36.2%,higher number,–
NC(=O)c1ccc(-c2nc(-c3ccc4c(c3)OCO4)c(-c3ccccn3)[nH]2)cc1 [SB431542],3.6 fold,2.4 fold,5.2 fold,2 fold,6.2 fold,2 fold,42%,75%,–,63.3%,55%,36.6%,–,15.4%,24.4%,higher number,4.1 fold

# Source: patent US20150258084A1, “STEM CELL COMPOSITIONS AND METHODS OF THEIR USE” (Banner Health, priority 2014, published 2015)
